Assay results as given in US5716971A, “Pyridine derivatives, their production and use” (Takeda Chemical Industries, Ltd., priority 1993, dated 1998).

Experiments:
specimen of rat aorta [1] = experiment: Vasorelaxation activity in a specimen of rat aorta: contraction caused by KCl; conditions: read-out: constriction inhibitory ratio
Description: (§1) Male Wister rats (10 to 13 week old were employed for the experiment. After dehematization, the aorta was excised and a ring specimen (5 mm length) was prepared. The specimen was suspended in a bath filled with oxygenated (95% O2 -5%CO2) Krebs solution (36° C.). The ring specimen was fixed at one end and the other end was connected to a transducer (Nippon Koden) for recording tension to determine the tension. After a stabilization period of one hour, TEA (30-45 mM) and BaCl2 (0.3 mM) were added to the bath to cause vasoconstriction. After the constriction had reached a steady state (after about 15 minutes), a test compound was added to the bath and its relaxation activity was measured.
Vasorelaxation activity in a specimen of rat aorta Effects on contraction caused by potassium chloride (KCl)
The same experiment was conducted as in Experiment 1, excepting the use of KCl ([…]) instead of TEA and BaCl2

specimen of rat aorta [2] = experiment: Vasorelaxation activity in a specimen of rat aorta: contraction caused by TEA and BaCl2; conditions: TEA (30-45 mM) and BaCl2 (0.3 mM) contraction, read-out: constriction inhibitory ratio
Description: Vasorelaxation activity in a specimen of rat aorta Effects on contraction caused by tetraethylammonium chloride (TEA) and barium chloride (BaCl2)
as §1

| SMILES | inhibition at 1 µM (specimen of rat aorta [1]) [%] | inhibition at 1 µM (specimen of rat aorta [2]) [%] | inhibition at 3 µM (specimen of rat aorta [1]) [%] | inhibition at 10 µM (specimen of rat aorta [1]) [%] | inhibition at 3 µM (specimen of rat aorta [2]) [%] | inhibition at 10 µM (specimen of rat aorta [2]) [%] |
| --- | --- | --- | --- | --- | --- | --- |
| CC(C)(C)O/N=C(/c1cc(Br)c(F)cc1O)c1ncccc1O [Compound 68, (Z)-2-(5-bromo-4-fluoro-2-hydroxybenzoyl)-3-hydroxypyridine O-t-butyloxime] | 4 | 92 |  |  |  |  |
| Cc1cc(O)c(/C(=N/OC(C)(C)C)c2c(O)ccc[n+]2[O-])cc1F [Compound 127, (Z)-2-(5-fluoro-2-hydroxy-4-methylbenzoyl)-3-hydroxy pyridine N-oxide O-t-butyloxime] |  | 8 | 0 | 0 | 85 | 100 |
| Cc1cc(O)c(/C(=N/OC(C)(C)C)c2ncccc2O)cc1C [Compound 106, (Z)-2-(2-hydroxy-4,5-dimethylbenzoyl)-3-hydroxy pyridine O-t-butyloxime] | 0 | 2 | 5 | 39 | 56 | 100 |
| Cc1cc(O)c(/C(=N/OC(C)(C)C)c2ncccc2O)cc1F [Compound 114, (Z)-2-(5-fluoro-2-hydroxy-4-methylbenzoyl)-3-hydroxy pyridine O-t-butyloxime] | 0 | 65 | 0 |  | 89 |  |
| CC(C)(C)O/N=C(/c1cc([N+](=O)[O-])ccc1O)c1c(O)ccc[n+]1[O-] [Compound 64, (Z)-2-(2-hydroxy-5-nitrobenzoyl)-3-hydroxypyridine N-oxide O-t-butyloxime] |  |  | 0 | 4 | 43 | 100 |
| CC(C)(C)O/N=C(/c1ccc(F)cc1O)c1ncccc1O [Compound 30, (Z)-2-(4-fluoro-2-hydroxybenzoyl)-3-hydroxypyridine O-t-butyloxime] |  | 4 | 1 | 18 | 50 | 92 |
| Cc1cc(/C(=N/OC(C)(C)C)c2ncccc2O)c(O)cc1F [Compound 111, (Z)-2-(4-fluoro-2-hydroxy-5-methylbenzoyl)-3-hydroxy pyridine O-t-butyloxime] | 0 | 81 | 0 |  | 92 |  |
| CC(C)(C)O/N=C(/c1cc(C(F)(F)F)ccc1O)c1ncccc1O [Compound 4, (Z)-2-(5-trifluoromethyl-2-hydroxybenzoyl)-3-hydroxypyridine O-t-butyloxime] | -2 | 38 | 7 |  | 79 |  |
| COc1cc(O)c(/C(=N/OC(C)(C)C)c2c(O)ccc[n+]2[O-])cc1Br [Compound 121, (Z)-2-(5-bromo-2-hydroxy-4-methoxybenzoyl)-3-hydroxy pyridine N-oxide O-t-butyloxime] |  | 3 | 0 | 0 | 57 | 82 |
| CC(C)(C)O/N=C(/c1cc(C#N)ccc1O)c1ncccc1O [Compound 9, (Z)-2-(5-cyano-2-hydroxybenzoyl)-3-hydroxypyridine O-t-butyloxime] |  |  | 0 | 10 | 22 | 82 |
| CCCCO/N=C(/c1cc(Br)ccc1O)c1ncccc1O [Compound 18] |  |  |  |  | 41 | 63 |
| Cc1cc(O)c(/C(=N/OC(C)(C)C)c2c(O)ccc[n+]2[O-])cc1C [Compound 125, (Z)-2-(2-hydroxy-4,5-dimethyl-benzoyl)-3-hydroxy pyridine N-oxide O-t-butyloxime] |  |  | 1 | 8 | 25 | 78 |
| CC(C)(C)O/N=C(/c1cc(F)ccc1O)c1ncccc1O [Compound 8, (Z)-2-(5-fluoro-2-hydroxybenzoyl)-3-hydroxypyridine O-t-butyloxime] | -9 | 16 | -2 |  | 93 |  |
